Assays:
[1] = Bulk density, tapped density and flow properties (Hausner Ratio, Compressibility Index); format: physicochemical; settings: for Hausner Ratio: tapped density / bulk density
Procedure: The composition of present invention were analyzed for bulk and tapped density and flow properties such as Hausner Ratio, Compressibility Index. Bulk Density and Tapped Density is determined using the standard method of Test 616 (Bulk Density and Tapped Density) of USP 32. The Hausner ratio may be calculated using formula ptap/pbulk where ptap represents tapped density of granulate mass and pbulk represents the loose bulk density of granulate mass. A Hausner ratio of <1.25 indicates a powder that is free flowing whereas >1.25 indicates poor flowability. Compressibility index is indirect measure of the flowability of the powder and it is determined according to US Pharmacopeia General Chapter <1174>. The smaller the compressibility index the better the flow properties. For example 5-15 indicates excellent, 12-16 good, 18-21 fair and >23 poor flow.

[2] = cited from earlier work
[3] = listed as Active Pharmaceutical Ingredient

- Tapped Density [1]: 0.300 g/mL
- bulk density ([1]; API prior to granulation versus composition): about 0.185 g/mL
- bulk density ([1]; Table 4): 0.185 g/mL
- Compressibility Index (%) ([1]; listed as API): about 38.33%
- Compressibility Index (%) [1, 3]: 38.33% (Very Poor)
- Hausner Ratio ([1]; listed as API): about 1.62
- Hausner Ratio [1, 3]: 1.62 (Very Poor)
SMILES: O=C(O)c1ccc(-n2nc(-c3ccccc3O)nc2-c2ccccc2O)cc1 [Deferasirox, 4-[3,5-bis(2-hydroxyphenyl)-1H-1,2,4-triazol-1-yl]benzoic acid]
- solubility in water [2]: poorly soluble in water

Source: patent publication US10888519B2, “Immediate release pharmaceutical composition of iron chelating agents” (Jubilant Generics Limited, priority 2016, dated 2021)
